Data as given in ChEMBL document CHEMBL4421722, “Inhibitors of protein prenyltransferases” (2013).
pIC50: −log10 of the molar value.

Legend:
[1] = Inhibition of rat recombinant geranylgeranyltransferase type I expressed in Escherichia coli assessed as reduction in geranylgeranylation of RhoA incubated for 30 mins in presence of [3H]GGPP by scintillation counting assay relative to control
[2] = target: T1, Geranylgeranyl transferase type-2 (Homo sapiens, UniProt P53611+Q92696); experiment: Inhibition of RabGGTase (unknown origin) using YPTI as substrate protein and [3H]geranylgeranyl pyrophosphate incubated for 20 mins by scintillation counting assay; type: protein-complex assay
T1 sequence (P53611 whole entry): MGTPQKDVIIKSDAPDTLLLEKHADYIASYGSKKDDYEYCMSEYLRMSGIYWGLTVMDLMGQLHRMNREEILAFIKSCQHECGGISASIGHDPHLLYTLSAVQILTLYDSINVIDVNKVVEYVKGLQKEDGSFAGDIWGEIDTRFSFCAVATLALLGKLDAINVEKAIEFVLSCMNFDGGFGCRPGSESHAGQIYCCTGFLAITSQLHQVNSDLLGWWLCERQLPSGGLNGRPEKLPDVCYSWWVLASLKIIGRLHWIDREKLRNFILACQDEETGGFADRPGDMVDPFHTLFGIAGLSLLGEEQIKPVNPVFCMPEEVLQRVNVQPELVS
T1 sequence (Q92696 whole entry): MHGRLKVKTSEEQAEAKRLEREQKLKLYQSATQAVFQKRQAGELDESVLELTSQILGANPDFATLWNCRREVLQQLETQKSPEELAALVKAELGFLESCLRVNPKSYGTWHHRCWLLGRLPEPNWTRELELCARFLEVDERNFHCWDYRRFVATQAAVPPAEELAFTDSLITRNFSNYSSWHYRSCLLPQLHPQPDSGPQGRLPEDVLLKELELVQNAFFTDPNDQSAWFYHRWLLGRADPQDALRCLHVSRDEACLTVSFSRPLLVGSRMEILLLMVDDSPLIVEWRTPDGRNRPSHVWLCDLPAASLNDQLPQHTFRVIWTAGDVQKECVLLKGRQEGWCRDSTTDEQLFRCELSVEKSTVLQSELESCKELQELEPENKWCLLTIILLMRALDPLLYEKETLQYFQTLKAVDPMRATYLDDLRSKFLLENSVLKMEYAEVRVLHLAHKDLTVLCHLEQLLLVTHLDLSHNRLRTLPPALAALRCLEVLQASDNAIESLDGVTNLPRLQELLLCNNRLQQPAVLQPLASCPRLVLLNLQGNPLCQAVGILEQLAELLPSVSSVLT

[3] = target: Protein farnesyltransferase (Rattus norvegicus, UniProt Q02293+Q04631); experiment: Inhibition of rat recombinant FTase alpha/beta expressed in Escherichia coli using K-Ras4B as a substrate as and [3H]farnesyl pyrophosphate incubated for 30 mins by scintillation counting assay
[4] = Inhibition of rat recombinant geranylgeranyltransferase type I expressed in Escherichia coli assessed as reduction in geranylgeranylation of K-Ras4B incubated for 30 mins in presence of [3H]GGPP by scintillation counting assay
[5] = tested on: K562; experiment: Antiproliferative activity against human K562 cells assessed as inhibition of cell proliferation incubated for 72 hrs by CCK8 assay; type: functional, cell-based; conditions: K562, 72 h
[6] = tested on: Jurkat; experiment: Antiproliferative activity against human Jurkat cells assessed as inhibition of cell proliferation incubated for 72 hrs by CCK8 assay; type: functional, cell-based
[7] = species: Rattus norvegicus; experiment: Inhibition of rat recombinant geranylgeranyltransferase type I expressed in Escherichia coli assessed as residual enzyme activity for geranylgeranylation of RhoA at 50 uM incubated for 30 mins in presence of [3H]GGPP by scintillation counting assay relative to control
[8] = species: Rattus norvegicus; experiment: Inhibition of rat recombinant geranylgeranyltransferase type I expressed in Escherichia coli assessed as residual enzyme activity for geranylgeranylation of K-Ras4B at 50 uM incubated for 30 mins in presence of [3H]GGPP by scintillation counting assay relative to control
[9] = tested on: MIA PaCa-2; experiment: Antiproliferative activity against human MIAPaCa2 cells assessed as inhibition of cell proliferation incubated for 72 hrs by CCK8 assay; type: functional, cell-based; conditions: MIA PaCa-2, 72 h
[10] = Antiproliferative activity against human MCF10A cells assessed as inhibition of cell proliferation incubated for 72 hrs by CCK8 assay; type: cell-based, MCF-10A
[11] = tested on: Capan-2; experiment: Antiproliferative activity against human Capan2 cells assessed as inhibition of cell proliferation incubated for 72 hrs by CCK8 assay; type: functional, cell-based; conditions: Capan-2, 72 h
[12] = tested on: CFPAC-1; experiment: Antiproliferative activity against human CFPAC-1 cells assessed as inhibition of cell proliferation incubated for 72 hrs by CCK8 assay; type: functional, cell-based; conditions: CFPAC-1, 72 h
[13] = tested on: MCF7; experiment: Antiproliferative activity against human MCF7 cells assessed as inhibition of cell proliferation incubated for 6 days by CCK8 assay; type: functional, cell-based; conditions: MCF7, 144 h
[14] = tested on: PANC-1; experiment: Antiproliferative activity against human PANC1 cells assessed as inhibition of cell proliferation incubated for 72 hrs by CCK8 assay; type: functional, cell-based; conditions: PANC-1, 72 h
[15] = tested on: MDA-MB-231; experiment: Antiproliferative activity against human MDA-MB-231 cells assessed as inhibition of cell proliferation incubated for 72 hrs by CCK8 assay; type: functional; conditions: MDA-MB-231, 72 h
[16] = tested on: BT-474; experiment: Antiproliferative activity against human BT474 cells assessed as inhibition of cell proliferation incubated for 72 hrs by CCK8 assay; type: functional, cell-based; conditions: BT-474, 72 h
[17] = tested on: ASPC1; experiment: Antiproliferative activity against human AsPC1 cells assessed as inhibition of cell proliferation incubated for 6 days by CCK8 assay; type: functional, cell-based; conditions: ASPC1, 144 h

For CCCCCCS[C@H]1[C@@H](C(=O)O)[C@H](c2ccc(Cl)c(Cl)c2)N(S(=O)(=O)c2ccc(C)cc2)[C@@H]1CCC, the pIC50 [1] was 5.29, the pIC50 [2] was 5.15 and the pIC50 [3] was less than 4.00.

Work on CC[C@@H]1C=C(C(=O)O)[C@H](c2ccc(F)cc2)N1S(=O)(=O)c1ccc(C)cc1 yielded a pIC50 [1] of 3.70 and a pIC50 [4] of 3.60.

Work on Cc1ccccc1S(=O)(=O)N1[C@@H](c2cccc(Cl)c2)C(CO)=CC[C@H]1c1ccc(Cl)cc1 yielded a pIC50 [1] of less than 4.00, a GI50 [5] of 5.8 µM and a GI50 [6] of 7.5 µM.

CC(C)(C)OC(=O)CCS[C@H]1[C@@H](C(=O)O)[C@H](c2ccc(Cl)cc2)N(S(=O)(=O)c2ccccc2)[C@@H]1CC1CCCC1 gave a pIC50 [1] of 5.62, a pIC50 [2] of 5.15 and a pIC50 [3] of less than 4.00. The Activity [7] was 9.7% and the Activity [8] was 30.4%.

In the case of CC(C)(C)[C@@H]1C=C(C(=O)O)[C@H](c2ccc(Cl)cc2)N1S(C)(=O)=O, the pIC50 [1] was less than 4.30 and the pIC50 [4] was 4.35.

CC(C)(C)[C@@H]1C=C(C(=O)N[C@@H](Cc2ccccc2)C(N)=O)[C@H](c2ccc(Cl)c(Cl)c2)N1S(=O)(=O)C(C)(C)C gave a pIC50 [1] of 4.30 to 5.57, a GI50 [5] of 4.22 to 5.9 µM and a GI50 [6] of 4.57 to 5.91 µM.

Compound CCCCCS[C@H]1[C@@H](C(=O)O)[C@H](c2ccc(Br)cc2)N(S(=O)(=O)c2ccc(C)cc2)[C@@H]1CCC has a pIC50 [1] of less than 4.30, a pIC50 [2] of 5.44 and a pIC50 [3] of less than 4.00.

With Cc1ccccc1S(=O)(=O)N1[C@@H](c2cccc(Cl)c2)C(C(=O)N[C@@H](CC(C)C)C(N)=O)=CC[C@H]1c1ccc(Cl)cc1 the pIC50 [1] was less than 4.30, the GI50 [9] was 12 µM and the GI50 at 72 h [10] was greater than 20 µM. For the same compound, the GI50 [11] was 14 µM, the GI50 [5] was 6.15 µM and the GI50 [6] was 6.1 µM. It also gave a GI50 [12] of 13.7 µM and a GI50 [13] of 10.9 µM.

For Cc1ccc(S(=O)(=O)N2[C@@H](c3ccc(Cl)c(Cl)c3)C(C(=O)O)=C[C@H]2C(C)(C)C)cc1, the pIC50 [1] was 4.40 and the pIC50 [4] was 4.48.

Cc1ccc(S(=O)(=O)N2[C@H](C)C=C(C(=O)O)[C@@H]2c2cccc(Cl)c2)cc1 showed a pIC50 [1] of 4.52 and a pIC50 [4] of 4.70.

Work on CCCCC[C@@H]1[C@@H](Sc2ccc(C)cc2)[C@H](C(=O)O)[C@H](c2ccc(C)cc2)N1S(=O)(=O)c1ccc(C)cc1 yielded a pIC50 [1] of 4.00 and a pIC50 [4] of 4.19.

For Cc1ccccc1S(=O)(=O)N1[C@@H](c2ccc(Cl)c(Cl)c2)C(C(=O)N[C@@H](Cc2ccccc2)C(N)=O)=C[C@H]1C(C)(C)C, the pIC50 [1] was 5.12 to 5.27, the GI50 [9] was 7.49 to 8.06 µM and the GI50 [11] was 8.45 to 11.3 µM. It also gave a GI50 [5] of 6.74 to 6.9 µM, a GI50 [6] of 5.62 to 6.9 µM and a GI50 [14] of 7.52 to 11.7 µM. The GI50 [15] was 5.54 to 12.6 µM, the GI50 [16] was 10.6 to 10.8 µM and the GI50 [17] was 11.5 to 12.9 µM. It also gave a GI50 [12] of 2.03 to 6.09 µM.

With CCCCCCS[C@H]1[C@@H](C(=O)O)[C@H](c2ccc(Br)cc2)N(S(=O)(=O)c2ccc(C)cc2)[C@@H]1CCCCCC the pIC50 [1] was less than 4.30, the pIC50 [2] was 5.66 and the pIC50 [3] was less than 4.00.

Compound Cc1ccccc1S(=O)(=O)N1[C@@H](c2ccc(Cl)cc2)C(C(=O)N[C@@H](Cc2ccccc2)C(N)=O)=C[C@H]1C(C)CC(C)(C)C (stereo not given in full) has a pIC50 [1] of 4.30 to 5.00, a GI50 [9] of 6.7 to 7.17 µM and a GI50 at 72 h [10] of 9.16 to 11.3 µM. The GI50 [11] was 7.5 to 10.5 µM, the GI50 [5] was 5.95 to 6.3 µM and the GI50 [6] was 6.4 to 9.76 µM. For the same compound, the GI50 [14] was 8.6 to 8.85 µM, the GI50 [16] was 10.1 to 10.8 µM and the GI50 [17] was 8.61 to 11.4 µM. It also gave a GI50 [13] of 3.1 to 4.71 µM.

In the case of COC(=O)[C@H](Cc1ccccc1)NC(=O)COCC1=C[C@@H](C(C)(C)C)N(S(=O)(=O)c2ccccc2C)[C@H]1c1ccc(Cl)cc1, the pIC50 [1] was 4.70 to 5.68, the pIC50 [5] was 5.22 to 5.24 and the GI50 [6] was 3.51 to 5.1 µM.

With COC(=O)[C@H](Cc1ccccc1)NC(=O)C1=C[C@@H](C(C)(C)C)N(S(=O)(=O)c2ccccc2C)[C@H]1c1ccc(Cl)cc1 the pIC50 [1] was less than 4.30, the GI50 [5] was 14 to 17 µM and the pIC50 [5] was 4.98. The GI50 [6] was 10.5 to 19 µM.
